Experimental data: US20130203718A1 (priority 2010, published 2013)

Tests used:
[1] = molecular target: T1, hMR (Homo sapiens, UniProt P08235); assay: APRn selectivity: transactivation in HEK293T cells transiently expressing hMR; format: cell-based; conditions: mean±SEM; for MR Antagonist efficacy (%): aldosterone 10^−9 M
T1 construct: expressed in transfected cells; host or cells: HEK 293T
T1 sequence (P08235 1-984): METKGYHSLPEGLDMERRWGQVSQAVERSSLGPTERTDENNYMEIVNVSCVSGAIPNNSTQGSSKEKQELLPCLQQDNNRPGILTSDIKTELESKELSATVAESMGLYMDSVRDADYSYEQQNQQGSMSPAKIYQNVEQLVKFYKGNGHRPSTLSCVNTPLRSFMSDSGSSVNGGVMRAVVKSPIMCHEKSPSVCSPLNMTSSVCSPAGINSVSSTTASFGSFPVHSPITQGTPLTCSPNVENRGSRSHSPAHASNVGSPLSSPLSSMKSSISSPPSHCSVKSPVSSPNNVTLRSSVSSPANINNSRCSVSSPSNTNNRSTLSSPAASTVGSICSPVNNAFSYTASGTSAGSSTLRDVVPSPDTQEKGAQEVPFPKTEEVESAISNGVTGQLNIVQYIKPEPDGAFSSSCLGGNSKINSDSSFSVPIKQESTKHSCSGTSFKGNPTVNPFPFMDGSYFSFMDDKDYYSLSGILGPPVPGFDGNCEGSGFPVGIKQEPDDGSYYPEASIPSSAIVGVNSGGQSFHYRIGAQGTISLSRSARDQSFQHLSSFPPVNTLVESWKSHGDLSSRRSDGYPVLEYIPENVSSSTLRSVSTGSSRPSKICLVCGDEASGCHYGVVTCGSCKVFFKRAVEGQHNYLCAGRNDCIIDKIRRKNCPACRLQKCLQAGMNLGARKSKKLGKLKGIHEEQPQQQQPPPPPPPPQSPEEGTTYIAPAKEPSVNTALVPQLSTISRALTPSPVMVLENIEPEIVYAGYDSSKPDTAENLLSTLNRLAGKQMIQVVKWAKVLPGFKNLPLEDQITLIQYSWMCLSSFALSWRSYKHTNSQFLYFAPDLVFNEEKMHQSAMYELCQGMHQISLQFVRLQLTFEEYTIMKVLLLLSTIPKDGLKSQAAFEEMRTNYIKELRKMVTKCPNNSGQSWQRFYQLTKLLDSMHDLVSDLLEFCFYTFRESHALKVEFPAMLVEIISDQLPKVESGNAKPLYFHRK
Description: Measurement of the APRn Selectivity in HEK 293T.
The HEK-293T cells were cultured and transfected according to the method described above for the PR transactivation assays. The expression vectors pcDNA-hAR, kindly provided by G. A. Coetzee, pchGR (Hellal-Levy, C et al. FEBS Lett 1999, 464, 9), and pchMR (Fagart, J. et al. EMBO J. 1998, 17, 3317) were used for studying the ability of APRn to activate or inactivate the AR, GR and MR, respectively. For each transfection assays, 2 μg of the expression vector was used together with 7 μg of the GRE2-Luc reporter vector. Dihydrotestosterone (DHT), dexamethasone (Dex) and Aldosterone (Aldo) were selected as AR, GR and MR ligands, respectively. They were used at the concentration of 10^−9 M. The APRn agonist and antagonist efficacy for AR, GR and MR were measured as described above for PR. The results are the mean±SEM of three independent experiments.
Transfection assays were performed in HEK 293T cells by using expression vectors for the hAR, hGR and hMR and the GRE2-Luc reporter used for the PR transactivation assays.

Structure (SMILES) | melting point [°C] | MR Antagonist efficacy (%) [1] [%] | MR Agonist efficacy (%) [1] [%]
CC(=O)[C@H]1CC[C@H]2[C@@H]3CC=C4C[C@@H](F)CC[C@]4(C)[C@H]3CC[C@]12C [APR-16, 3β-Fluoropregn-5-en-20-one] | 166 to 167 | −2.7 ± 3.3 | 0.53 ± 0.05
C[C@@H]1CCC2C3CC=C4C[C@@H](F)CC[C@]4(C)C3CC[C@]2(C)[C@H]1F (stereo partly drawn) [APR-19, 3β,17α-Difluoro-17α-methyl-D-Homo-pregn-5-ene] | – | −1.0 ± 3.5 | 0.57 ± 0.07
CC#C[C@]1(O)CCC2C3CC[C@H]4CCCC[C@]4(C)C3CC[C@@]21C (stereo partly drawn) [APR-42, 17α-(1-Propynyl)-5α-androstan-17β-ol] | 150 to 151 | 0.4 ± 2.6 | 0.57 ± 0.05
CC#C[C@]1(O)CCC2C3CC[C@H]4C[C@@H](F)CC[C@]4(C)C3CC[C@@]21C (stereo partly drawn) [APR-43, 3β-Fluoro-17α-(1-propynyl)-5α-androstan-17β-ol] | 139 to 140 | – | –
C[C@]12CCC3C(CC=C4C[C@@H](F)CC[C@@H]43)C1CCC2=O (stereo partly drawn) [APR-47, 3β-Fluoro-19-nor-androst-5-en-17-one] | 102 to 103 | 2.2 ± 2.1 | 0.50 ± 0.14
CC#C[C@]1(O)CCC2C3CC=C4C[C@@H](F)CC[C@@H]4C3CC[C@@]21C (stereo partly drawn) [APR-51, 3β-Fluoro-17α-(1-propynyl)-19-nor-androst-5-en-17β-ol] | 72 to 73 | – | –
CC#C[C@]1(O)CCC2C3CC[C@H]4CCCC[C@@H]4C3CC[C@@]21C (stereo partly drawn) [APR-54, 17α-(1-Propynyl)-19-nor-5-androstan-17β-ol] | – | 3.4 ± 6.2 | 0.53 ± 0.11
